Key:
Stagonospora nodorum = experiment: Test D: wheat glume blotch, preventive spray on wheat seedlings; settings: wheat glume blotch, 100 = 100% disease control, 0 = no control
[1] = system: Puccinia recondita f sp. tritici; experiment: Test F: wheat leaf rust, preventive spray on wheat seedlings; settings: wheat leaf rust, 100 = 100% disease control, 0 = no control
Phytophthora infestans = format: in vivo; settings: 50 ppm (asterisk); tomato late blight; 100 = 100% disease control, 0 = no control
Zymoseptoria tritici = experiment: Test E: wheat leaf blotch, preventive spray on wheat seedlings; settings: wheat leaf blotch, 100 = 100% disease control, 0 = no control
Description: General protocol for preparing test solutions for Tests A-G: the test compounds were first dissolved in acetone in an amount equal to 3% of the final volume and then suspended at the desired concentration (in ppm) in acetone and purified water (50/50 mix by volume) containing 250 ppm of the surfactant PEG400 (polyhydric alcohol esters). The resulting test suspensions were then used in Tests A-G. Compounds were sprayed at a concentration of 50 ppm (*) or 10 ppm to the point of run-off on the test plants, the equivalent of a rate of 200 g/ha or 40 g/ha, respectively.
The test solution was sprayed to the point of run-off on wheat seedlings. The following day the seedlings were inoculated with a spore suspension of Zymoseptoria tritici (the causal agent of wheat leaf blotch) and incubated in a saturated atmosphere at 24° C. for 48 h, and then moved to a growth chamber at 20° C. for 17 days, after which time visual disease ratings were made.
Compounds with an asterisks (*) were applied at a concentration of 50 ppm, otherwise test solutions were applied at 10 ppm.

[2] = system: Erysiphe graminis f sp. tritici; experiment: Test G: wheat powdery mildew, preventive spray on wheat seedlings; settings: wheat powdery mildew, 100 = 100% disease control, 0 = no control
Botrytis cinerea = experiment: Test B: gray mold, preventive spray on tomato seedlings; settings: gray mold on tomato, 100 = 100% disease control, 0 = no control

Row | SMILES | Test D rating (% disease control) (Stagonospora nodorum; 50 ppm (asterisk)) [%] | Test F rating (% disease control) ([1]; 50 ppm (asterisk)) [%] | Test C rating (% disease control) (Phytophthora infestans) [%] | Test E rating (% disease control) (Zymoseptoria tritici; 50 ppm (asterisk)) [%] | Test G rating (% disease control) ([2]; 50 ppm (asterisk)) [%] | Test B rating (% disease control) (Botrytis cinerea; 50 ppm (asterisk)) [%] | Test D rating (% disease control) (Stagonospora nodorum; 10 ppm) [%] | Test F rating (% disease control) ([1]; 10 ppm) [%] | Test E rating (% disease control) (Zymoseptoria tritici; 10 ppm) [%] | Test G rating (% disease control) ([2]; 10 ppm) [%] | Test B rating (% disease control) (Botrytis cinerea; 10 ppm) [%]
1 | CC(C)(C)C(O)(Cn1cncn1)C1=NOC(c2ccc(Cl)cc2)C1 (single isomer, unassigned) [Compound 133] | 100 | 100 | 0 | 88 | 99 | 95 | – | – | – | – | –
2 | OC(Cn1cncn1)(C1=NOC(Cc2ccccc2)C1)c1ccc(Cl)cc1 (single isomer, unassigned) [Compound 136] | 100 | 100 | 0 | 83 | 100 | 92 | – | – | – | – | –
3 | CC(C)(C)C1CC(C(O)(Cn2cncn2)c2ccccc2)=NO1 (single isomer, unassigned) [Compound 125] | 0 | 28 | 0 | 0 | 89 | 0 | – | – | – | – | –
4 | OC(Cn1cncn1)(C1=NOC(c2ccc(F)cc2)C1)c1ccc(F)cc1 (single isomer, unassigned) [Compound 122] | 100 | 100 | 0 | 77 | 100 | 0 | – | – | – | – | –
5 | CC(C)(C)C1CC(C(O)(Cn2cncn2)c2ccccc2)=NO1 (single isomer, unassigned) [Compound 124] | 0 | 28 | 0 | 6 | 96 | 0 | – | – | – | – | –
6 | CC1(c2ccc(Cl)cc2)CC(C(O)(Cn2cncn2)c2ccccc2)=NO1 (single isomer, unassigned) [Compound 210] | 100 | 100 | 0 | 41 | 100 | 0 | – | – | – | – | –
7 | OC(Cn1cncn1)(C1=NOC(c2c(F)cccc2F)C1)c1ccccc1 (mixture of isomers) [Compound 1] | 99 | 99 | 0 | 18 | 100 | 0 | – | – | – | – | –
8 | OC(Cn1cncn1)(C1=NOC(c2ccc(Cl)cc2)C1)c1ccc(Cl)cc1 (single isomer, unassigned) [Compound 123] | 100 | 100 | 0 | 100 | 100 | 56 | – | – | – | – | –
9 | OC(Cn1cncn1)(C1=NOC(c2ccc(F)cc2)C1)c1ccc(F)cc1 (single isomer, unassigned) [Compound 119] | – | 41 | 0 | 0 | 100 | 0 | – | – | – | – | –
10 | OC(Cn1cncn1)(C1=NOC(Cn2cc(Br)cn2)C1)c1ccc(Cl)cc1 (single isomer, unassigned) [Compound 37] | – | – | – | – | – | – | 0 | 94 | 0 | 99 | 0
11 | CSc1ccc(C2CC(C(O)(Cn3cncn3)c3ccc(Cl)cc3)=NO2)cc1 (single isomer, unassigned) [Compound 107] | – | – | – | – | – | – | 32 | 100 | 58 | 99 | 0
12 | OC(Cn1cncn1)(C1=NOC(c2ccc(C(F)(F)F)cc2)C1)c1ccc(Cl)cc1 (single isomer, unassigned) [Compound 146] | – | – | – | – | – | – | 100 | 100 | 99 | 99 | 0
13 | OC(Cn1cncn1)(C1=NOC(c2ccc(Cl)cc2)C1)c1ccc(Oc2ccccc2)cc1 (single isomer, unassigned) [Compound 128] | 100 | 100 | – | 95 | 99 | 0 | – | – | – | – | –
14 | CC(C)(C)C(O)(Cn1cncn1)C1=NOC(COc2ccc(F)cc2)C1 (single isomer, unassigned) [Compound 79] | – | – | – | – | – | – | 100 | 100 | 21 | 99 | 97
15 | OC(Cn1cncn1)(C1=NOC(c2ccc(Cl)cc2)C1)c1ccc(Cl)cc1Cl (single isomer, unassigned) [Compound 141] | – | – | – | – | – | – | 0 | 99 | 1 | 84 | 0
16 | CC(C)(C)C(O)(Cn1cncn1)C1=NOC(c2ccc(-n3cc(Br)cn3)cc2)C1 (single isomer, unassigned) [Compound 8] | – | – | – | – | – | – | 0 | 0 | 0 | 100 | 0
17 | OC(Cn1cncn1)(C1=NOC(c2ccc(Cl)cc2)C1)C12CC3CC(CC(C3)C1)C2 (single isomer, unassigned) [Compound 40] | – | – | – | – | – | – | 51 | 55 | 0 | 48 | 0
18 | CC1(C(O)(Cn2cncn2)C2=NOC(c3ccc(Cl)cc3)C2)CC1 (single isomer, unassigned) [Compound 126] | – | – | – | – | – | – | 100 | 100 | 89 | 99 | 97
19 | CC(C)(C)C(O)(Cn1cncn1)C1=NOC(COc2ccc(-n3cc(Br)cn3)cc2)C1 (stereo not drawn) [Compound 30] | – | – | – | – | – | – | 0 | 79 | 0 | 100 | 99
20 | OC(Cc1ccccc1)(Cn1cncn1)C1=NOC(c2ccc(Cl)cc2)C1 (single isomer, unassigned) [Compound 121] | 100 | 100 | – | 62 | 100 | 100 | – | – | – | – | –
21 | CC(C)(C)C(O)(Cn1cncn1)C1=NOC(COc2ccc(Br)cc2)C1 (single isomer, unassigned) [Compound 182] | – | – | – | – | – | – | 99 | 100 | 96 | 100 | 99
22 | CC(C)(C)CC(O)(Cn1cncn1)C1=NOC(c2ccc(Cl)cc2)C1 (single isomer, unassigned) [Compound 139] | – | – | – | – | – | – | 99 | 100 | 6 | 99 | 0
23 | CC(C)(C)CC(O)(Cn1cncn1)C1=NOC(COc2ccc(Cl)cc2)C1 (single isomer, unassigned) [Compound 173] | – | – | – | – | – | – | 63 | 100 | 6 | 97 | 0
24 | OC(Cn1cncn1)(C1=NOC(Cc2ccc(C(F)(F)F)cc2)C1)c1ccc(Cl)cc1 (single isomer, unassigned) [Compound 203] | – | – | – | – | – | – | 55 | 100 | 16 | 99 | 0
25 | OC(Cn1cncn1)(C1=NOC(c2ccc(-n3cc(Br)cn3)cc2)C1)c1ccc(Cl)cc1 (single isomer, unassigned) [Compound 5] | – | – | – | – | – | – | 40 | 100 | 48 | 100 | 0
26 | OC(Cn1cncn1)(C1=NOC(c2ccc(-n3cc(Br)cn3)cc2)C1)c1ccc(Cl)cc1 (single isomer, unassigned) [Compound 6] | – | – | – | – | – | – | 0 | 0 | 0 | 91 | 0
